Common to all, as to assay: GloSensor cAMP luminescence, HEK-293
Assay type in all cases: cell-based

Test [1] concerns the target T1, OR10A6 (Homo sapiens, UniProt Q8NH74).
T1 construct: full coding region from human genomic DNA in pFN210A, N-terminal IL-6-HaloTag; HEK-293 with RTP1S, G-alpha-olf, G-gamma-13, GloSensor-22F
T1 sequence (Q8NH74 1-314): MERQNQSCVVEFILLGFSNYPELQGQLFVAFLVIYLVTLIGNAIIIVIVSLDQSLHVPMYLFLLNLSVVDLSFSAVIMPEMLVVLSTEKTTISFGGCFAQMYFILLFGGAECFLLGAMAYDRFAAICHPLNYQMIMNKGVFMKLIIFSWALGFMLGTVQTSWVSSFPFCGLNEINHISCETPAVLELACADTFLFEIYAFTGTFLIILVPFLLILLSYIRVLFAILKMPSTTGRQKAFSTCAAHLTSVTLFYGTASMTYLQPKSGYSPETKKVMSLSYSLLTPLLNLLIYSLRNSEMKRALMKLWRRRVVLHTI
An excerpt: (§1) GloSensor cAMP luminescence, HEK-293 on OR10A6

Test [2] deals with T2, OR10A6 (Homo sapiens, UniProt Q8NH74, A117V/L287P/V140G).
T2 construct: full coding region from human genomic DNA in pFN210A, N-terminal IL-6-HaloTag; HEK-293 with RTP1S, G-alpha-olf, G-gamma-13, GloSensor-22F
T2 sequence (Q8NH74 1-314 A117V/V140G/L287P): T1 sequence (Q8NH74 1-314) with A117V, V140G, L287P
Text: as §1

In test [3] the target is T3, OR10A6 (Homo sapiens, UniProt Q8NH74, L287P).
T3 construct: full coding region from human genomic DNA in pFN210A, N-terminal IL-6-HaloTag; HEK-293 with RTP1S, G-alpha-olf, G-gamma-13, GloSensor-22F
T3 sequence (Q8NH74 1-314 L287P): T1 sequence (Q8NH74 1-314) with L287P
Text: as §1

Test [4] has as its target T4, OR2W1 (Homo sapiens, UniProt Q9Y3N9).
T4 construct: full coding region from human genomic DNA in pFN210A, N-terminal IL-6-HaloTag; HEK-293 with RTP1S, G-alpha-olf, G-gamma-13, GloSensor-22F
T4 sequence (Q9Y3N9 1-320): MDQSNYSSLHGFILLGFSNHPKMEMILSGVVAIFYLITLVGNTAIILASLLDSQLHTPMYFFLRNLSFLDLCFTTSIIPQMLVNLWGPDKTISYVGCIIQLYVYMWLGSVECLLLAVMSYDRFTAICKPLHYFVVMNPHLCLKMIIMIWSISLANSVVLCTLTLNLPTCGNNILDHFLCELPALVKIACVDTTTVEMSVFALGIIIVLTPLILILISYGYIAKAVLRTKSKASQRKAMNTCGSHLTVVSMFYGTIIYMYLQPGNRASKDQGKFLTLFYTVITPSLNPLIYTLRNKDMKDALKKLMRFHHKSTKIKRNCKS
An excerpt:
(§2) GloSensor cAMP luminescence, HEK-293 on OR2W1

For test [5], the target named is T5, OR2W1 (Homo sapiens, UniProt Q9Y3N9, D296N).
T5 construct: full coding region from human genomic DNA in pFN210A, N-terminal IL-6-HaloTag; HEK-293 with RTP1S, G-alpha-olf, G-gamma-13, GloSensor-22F
T5 sequence (Q9Y3N9 1-320 D296N): T4 sequence (Q9Y3N9 1-320) with D296N
Text: as §2

Test [6] addresses T6, OR2W1 (Homo sapiens, UniProt Q9Y3N9, M81V).
T6 construct: full coding region from human genomic DNA in pFN210A, N-terminal IL-6-HaloTag; HEK-293 with RTP1S, G-alpha-olf, G-gamma-13, GloSensor-22F
T6 sequence (Q9Y3N9 1-320 M81V): T4 sequence (Q9Y3N9 1-320) with M81V
Text: as §2

Where [7] appears, read: read-out: Z4-11Al EC50 [μmol/L] ^a.

Three molecules from PMC9589189, “The human odorant receptor OR10A6 is tuned to the pheromone of the commensal fruit fly Drosophila melanogaster” (iScience, 2022) can be followed below.

Where a chain is given by its changes, count along the chain named. Where two headings read alike, the source gives them in different places.

As for `CCCC/C=C\CCC=O` [Z4-9Al, (Z)-4-nonenal], the EC50 on OR10A6 [1] was over 1000 µM; at OR10A6 [2] it was over 1000 µM; at OR10A6 [3] (read-out: Z4-9Al), 41.1 ± 14.2 µmol/L; at OR2W1 [4] (read-out: Z4-9Al) it was 119 ± 23.1 µmol/L; on OR2W1 [5] (read-out: Z4-9Al) it was 91.8 ± 46.2 µmol/L; at OR2W1 [6] (read-out: Z4-9Al), 142 ± 92.4 µM.
For the molecule `CCCCCC/C=C\CCC=O` [Z4-11Al, (Z)-4-undecenal], the EC50 at OR10A6 [1] was over 1000 µM; at OR10A6 [2] it was over 1000 µM; on OR10A6 [3] (setting [7]), 28.2 ± 12.6 µmol/L; at OR2W1 [4] (setting [7]), 65.1 ± 35.8 µmol/L; on OR2W1 [5] (setting [7]), 40.4 ± 12 µmol/L; at OR2W1 [6] (read-out: EC50) it was over 1000 µM.
In the case of `CCCC/C=C\CCCCC=O` [Z6-11Al, (Z)-6-undecenal], the EC50 at OR10A6 [1] is over 1000 µM; on OR10A6 [2], over 1000 µM; at OR10A6 [3] (read-out: Z6-11Al) it was 34.8 ± 9.21 µmol/L; at OR2W1 [4] (read-out: Z6-11Al), 104 ± 27 µmol/L; at OR2W1 [5] (read-out: Z6-11Al), 138 ± 55 µmol/L; on OR2W1 [6] (read-out: EC50), over 1000 µM.
